Laboratory results from ChEMBL document CHEMBL6071211, “Invention of VH-937, a Potent HIV-1 Maturation Inhibitor with the Potential for Infrequent Oral Dosing in Humans” (ACS Med Chem Lett, 2024).
Values after ≈ are worked out from the molar mass of the structure shown.

Key:
[1] = tested on: Human immunodeficiency virus 1; experiment: In vitro antiviral activity against fully replicating HIV1 NL4-3 harboring Gag A364V mutant; format: functional, organism-based; conditions: Human immunodeficiency virus 1, NL4-3
[2] = tested on: Human immunodeficiency virus 1; experiment: In vitro antiviral activity against fully replicating wild type HIV1 harboring NLRepRluc-P373S by multicycle assay; format: functional, organism-based
[3] = tested on: Human immunodeficiency virus 1; experiment: In vitro antiviral activity against fully replicating HIV1 harboring Gag […]/V370A mutant by multicycle assay; format: functional, organism-based
[4] = tested on: Human immunodeficiency virus 1; experiment: In vitro antiviral activity against fully replicating HIV1 harboring Gag A364V mutant by multicycle assay; format: functional, organism-based
[5] = tested on: Human immunodeficiency virus 1; experiment: Ratio of EC50 for antiviral activity against fully replicating HIV1 harboring Gag V370A mutant by multicycle assay to EC50 for antiviral activity against fully replicating wild type HIV1 NLRepRluc-P373S by multicycle assay; format: functional
[6] = tested on: Human immunodeficiency virus 1; experiment: Ratio of EC50 for antiviral activity against fully replicating HIV1 harboring Gag deltaV370 mutant by multicycle assay to EC50 for antiviral activity against fully replicating wild type HIV1 NLRepRluc-P373S by multicycle assay; format: functional
[7] = tested on: Human immunodeficiency virus 1; experiment: Ratio of EC50 for antiviral activity against fully replicating HIV1 harboring Gag V3621/V370A mutant by multicycle assay to EC50 for antiviral activity against fully replicating wild type HIV1 NLRepRluc-P373S by multicycle assay; format: functional
[8] = tested on: Human immunodeficiency virus 1; experiment: Ratio of EC50 for antiviral activity against fully replicating HIV1 harboring to Gag T332S/[…]/prR41G mutant by multicycle assay to EC50 for antiviral activity against fully replicating wild type HIV1 NLRepRluc-P373S by multicycle assay; format: functional
[9] = tested on: Human immunodeficiency virus 1; experiment: Ratio of EC50 for antiviral activity against fully replicating HIV1 harboring Gag A364V mutant by multicycle assay to EC50 for antiviral activity against fully replicating wild type HIV1 NLRepRluc-P373S by multicycle assay; format: functional
[10] = tested on: Human immunodeficiency virus 1; experiment: In vitro antiviral activity against fully replicating wild type HIV1 NLRepRluc-P373S assessed as maximum percent inhibition by multicycle assay relative to control; format: functional
[11] = tested on: Human immunodeficiency virus 1; experiment: In vitro antiviral activity against fully replicating HIV1 harboring Gag V370A mutant assessed as maximum percent inhibition by multicycle assay relative to control; format: functional
[12] = tested on: Human immunodeficiency virus 1; experiment: In vitro antiviral activity against fully replicating HIV1 harboring Gag A364V mutant assessed as maximum percent inhibition by multicycle assay relative to control; format: functional
[13] = tested on: Human immunodeficiency virus 1; experiment: In vitro antiviral activity against fully replicating pseudotype HIV1 harboring Gag deltaV370 mutant by single cycle assay; format: functional, organism-based
[14] = tested on: Human immunodeficiency virus 1; experiment: Ratio of EC50 for antiviral activity against fully replicating pseudotype HIV1 harboring to Gag T332S/[…]/prR41G mutant by single cycle assay to EC50 for antiviral activity against fully replicating wild type pseudotype HIV1 NLRepRluc-P373S by single cycle assay; format: functional
[15] = tested on: Human immunodeficiency virus 1; experiment: Ratio of EC50 for antiviral activity against fully replicating pseudotype HIV1 harboring Gag A364V mutant by single cycle assay to EC50 for antiviral activity against fully replicating wild type pseudotype HIV1 NLRepRluc-P373S by single cycle assay; format: functional
[16] = tested on: Human immunodeficiency virus 1; experiment: In vitro antiviral activity against fully replicating pseudotype HIV1 harboring Gag V370A mutant assessed as maximum percent inhibition by single cycle assay relative to control; format: functional
[17] = tested on: Human immunodeficiency virus 1; experiment: In vitro antiviral activity against fully replicating pseudotype HIV1 harboring Gag A364V mutant assessed as maximum percent inhibition by single cycle assay relative to control; format: functional
[18] = tested on: Human immunodeficiency virus 1; experiment: In vitro antiviral activity against HIV1 subtype A clinical isolate UG275; format: functional, organism-based; conditions: Human immunodeficiency virus 1, UG275
[19] = tested on: Human immunodeficiency virus 1; experiment: In vitro antiviral activity against HIV1 subtype A clinical isolate I-2496; format: functional, organism-based; conditions: Human immunodeficiency virus 1, I-2496
[20] = AUC (infinity) in mouse at 1 mg/kg, iv; format: ADME, organism-based; conditions: in vivo
[21] = Elimination half life in mouse at 1 mg/kg, iv; format: ADME, organism-based; conditions: in vivo, read-out: beta t1/2 (converted)
[22] = Clearance in mouse at 1 mg/kg, iv; format: ADME, organism-based; conditions: in vivo
[23] = AUC (infinity) in mouse at 5 mg/kg, po; format: ADME, organism-based; conditions: in vivo
[24] = Clearance in rat at 1 mg/kg, iv; format: ADME, organism-based; conditions: in vivo
[25] = Elimination half life in rat at 5 mg/kg, po; format: ADME, organism-based; conditions: in vivo, read-out: beta t1/2 (converted)
[26] = AUC (infinity) in Cynomolgus monkey at 2 mg/kg, iv; format: ADME, organism-based, Macaca fascicularis; conditions: in vivo
[27] = Elimination half life in Cynomolgus monkey at 2 mg/kg, iv; format: ADME, organism-based, Macaca fascicularis; conditions: in vivo, read-out: beta t1/2 (converted)
[28] = Clearance in Cynomolgus monkey at 2 mg/kg, iv; format: ADME, organism-based, Macaca fascicularis; conditions: in vivo
[29] = Oral bioavailability in Cynomolgus monkey at 5 mg/kg; format: ADME, organism-based, Macaca fascicularis; conditions: in vivo
[30] = target: Human immunodeficiency virus type 1 Gag protein (Human immunodeficiency virus 1) (UniProt Q77YG1); experiment: Binding affinity to HIV1 wild type Gag mutant assessed as dissociation half life by virus-like particle (VLP) assay
[31] = Metabolic stability in dog liver microsomes assessed as half life; format: ADME, Canis lupus familiaris, Microsome
[32] = Metabolic stability in rat liver microsomes assessed as half life; format: ADME, Microsome
[33] = Metabolic stability in mouse liver microsomes assessed as half life; format: ADME, Microsome
[34] = Metabolic stability in Cynomolgus monkey liver microsomes assessed as half life; format: ADME, Macaca fascicularis, Microsome
[35] = Aqueous solubility of compound; format: physicochemical; conditions: buffer
[36] = Aqueous solubility of compound in fasted state simulated intestinal fluid (FaSSIF) at pH 6.6; format: physicochemical
Cytochrome P450 1A2 = target: T1, Cytochrome P450 1A2 (Homo sapiens, UniProt P05177); experiment: Inhibition of CYP1A2 (unknown origin); format: ADME
T1 sequence (P05177 whole entry): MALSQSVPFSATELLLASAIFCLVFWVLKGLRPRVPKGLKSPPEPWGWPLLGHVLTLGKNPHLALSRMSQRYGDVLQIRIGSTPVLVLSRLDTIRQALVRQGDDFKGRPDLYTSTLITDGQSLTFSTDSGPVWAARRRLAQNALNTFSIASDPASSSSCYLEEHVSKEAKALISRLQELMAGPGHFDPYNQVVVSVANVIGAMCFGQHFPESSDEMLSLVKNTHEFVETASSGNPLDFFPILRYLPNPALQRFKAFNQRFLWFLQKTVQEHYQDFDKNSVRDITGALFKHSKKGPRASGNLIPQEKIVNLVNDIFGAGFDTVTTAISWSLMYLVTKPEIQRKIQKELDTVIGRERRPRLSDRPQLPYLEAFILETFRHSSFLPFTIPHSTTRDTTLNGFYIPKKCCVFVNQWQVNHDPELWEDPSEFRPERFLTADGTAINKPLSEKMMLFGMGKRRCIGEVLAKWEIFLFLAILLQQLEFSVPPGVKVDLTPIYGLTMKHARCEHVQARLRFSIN

Cytochrome P450 2C19 = Cytochrome P450 2C19 (Homo sapiens, UniProt P33261); experiment: Inhibition of CYP2C19 (unknown origin); format: ADME
Cytochrome P450 2D6 = Cytochrome P450 2D6 (Homo sapiens, UniProt P10635); experiment: Inhibition of CYP2D6 (unknown origin); format: ADME
Chain of Cytochrome P450 2D6 (P10635 whole entry): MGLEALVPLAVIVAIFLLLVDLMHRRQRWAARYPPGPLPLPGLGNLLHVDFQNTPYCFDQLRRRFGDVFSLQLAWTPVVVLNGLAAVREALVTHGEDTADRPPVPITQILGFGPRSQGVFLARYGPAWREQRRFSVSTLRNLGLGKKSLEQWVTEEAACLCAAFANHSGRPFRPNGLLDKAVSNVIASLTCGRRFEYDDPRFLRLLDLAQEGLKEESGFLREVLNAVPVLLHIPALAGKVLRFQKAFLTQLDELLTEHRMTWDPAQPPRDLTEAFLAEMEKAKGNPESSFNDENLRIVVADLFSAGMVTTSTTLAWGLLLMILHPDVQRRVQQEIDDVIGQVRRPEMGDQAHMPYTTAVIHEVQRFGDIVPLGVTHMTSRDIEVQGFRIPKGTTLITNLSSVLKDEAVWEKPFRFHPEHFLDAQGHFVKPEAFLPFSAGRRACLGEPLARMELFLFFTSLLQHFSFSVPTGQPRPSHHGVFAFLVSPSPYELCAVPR

Chain of Cytochrome P450 2C19 (P33261 whole entry): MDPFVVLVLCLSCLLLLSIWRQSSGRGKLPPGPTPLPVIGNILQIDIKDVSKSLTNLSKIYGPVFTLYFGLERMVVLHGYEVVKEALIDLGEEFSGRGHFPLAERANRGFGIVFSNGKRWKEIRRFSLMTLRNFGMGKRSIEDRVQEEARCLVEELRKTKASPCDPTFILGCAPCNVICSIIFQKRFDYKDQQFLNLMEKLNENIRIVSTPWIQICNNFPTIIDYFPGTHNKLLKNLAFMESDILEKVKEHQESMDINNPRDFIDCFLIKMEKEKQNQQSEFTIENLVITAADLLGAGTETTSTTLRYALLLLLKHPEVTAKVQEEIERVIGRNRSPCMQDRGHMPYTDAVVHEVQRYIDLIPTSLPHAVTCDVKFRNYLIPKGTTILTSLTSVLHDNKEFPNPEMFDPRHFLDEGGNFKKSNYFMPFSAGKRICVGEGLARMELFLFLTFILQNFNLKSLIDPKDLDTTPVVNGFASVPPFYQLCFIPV

Structure (SMILES): C=C(C)[C@@H]1CC[C@]2(NCCN3CCS(=O)(=O)CC3)CC[C@]3(C)[C@H](CC[C@@H]4[C@@]5(C)CC=C(C6=CC[C@](COc7ncccc7C#N)(C(=O)O)CC6)C(C)(C)[C@@H]5CC[C@]43C)[C@@H]12
- EC50 [1]: 5 nM
- EC50 [2]: 2 nM
- EC50 [3]: 2 nM
- EC50 [4]: 5 nM
- Ratio EC50 [5]: 2
- Ratio EC50 [6]: 2
- Ratio EC50 [7]: 1
- Ratio EC50 [8]: 4
- Ratio EC50 [9]: 2.5
- Imax [10]: 99.1%
- Imax [11]: 98.5%
- Imax [12]: 95.2%
- EC50 [13]: 12 nM
- Ratio EC50 [14]: 4.8
- Ratio EC50 [15]: 6.4
- Imax [16]: 99%
- Imax [17]: 57%
- EC50 [18]: 2 nM
- EC50 [19]: 3 nM
- AUC(0-inf) [20]: 32.2 µM·h
- half-life [21]: 10.9 h
- clearance [22]: 0.63 mL/min/kg
- AUC(0-inf) [23]: 73.8 µM·h
- clearance [24]: 1.23 mL/min/kg
- half-life [25]: 8.6 h
- AUC(0-inf) [26]: 65.5 µM·h
- half-life [27]: 12.3 h
- clearance [28]: 0.32 mL/min/kg
- bioavailability [29]: 43.5%
- T1/2 [30]: 68.8 h
- half-life [31]: > 2 h
- half-life [32]: > 2 h
- half-life [33]: > 2 h
- half-life [34]: 0.2 h
- solubility [35]: < 1 mg/mL
- solubility [36]: 19 mg/mL (≈ 23 mM)
- IC50 (Cytochrome P450 1A2): > 4400 nM
- IC50 (Cytochrome P450 2C19): > 4400 nM
- IC50 (Cytochrome P450 2D6): > 4400 nM
